The results in this text go back to US6855715B1, “Serine protease inhibitors” (Eli Lilly and Company, priority 1999, dated 2005).

The first data set relates to plasma. Kind of data set: Partial Thromboplastin Time (Prothrombin) Test Protocol. To be noted: concentration of the solution added; final concentration in the assay mixture is one third of this value; Example 66 and comparison compounds: average of 3 tests. The data set is classed as biochemical. The protocol: The ability of a test compound to elongate Partial Thromboplastin Time (Prothrombin Time) may be evaluated in the following test protocols.
Partial Thromboplastin Time (Prothrombin) Test Protocol Venous blood was collected into 3.2% (0.109 m) trisodium citrate vacutainer tubes at 1 volume of anticoagulant to nine volumes of blood. The blood cells were separated by centrifugation at 700 g for ten minutes to yield plasma, which was frozen at […] until required.
To perform the test, 100 μl of plasma was pipetted into in a glass test tube, 1 μl of test compound in DMSO was added, and allowed to warm to 37° over two minutes. 100 μl of warm (37°) Manchester (tissue thromboplasin) reagent (Helena Biosciences, UK) was added, allowed to equilibrate for two minutes. 100 μl of warm (37°) 25 mM calcium chloride solution was added to initiate clotting. The test tube was tilted three times through a 90° angle every five seconds to mix the reagents and the time to clot formation recorded. Data from a series of observations and test compound concentrations are analysed by a SAS statistical analysis program and a CT2 (Concentration required to double clotting time) for each compound is generated.
In the case of “1-(3,4 Diaminobenzoyl-D-phenylglycinyl)-4-(4-fluoro-2-methylsulphonylphenyl)piperazine [Example 32]”, the “Conc. necessary to double the prothrombin time” value (shortened to “Conc. necessary”) was 11 µM.

For `CS(=O)(=O)c1cc(F)ccc1N1CCN(C(=O)[C@H](NC(=O)c2ccc3ccnc(N)c3c2)c2ccccc2)CC1.O=C(O)C(F)(F)F.O=C(O)C(F)(F)F` [1-aminoisoquinolin-7-oyl-D-phenylglycine-4-(4-fluoro-2-methanesulfonylphenyl)-piperazinamide ditrifluoroactetate salt, reference compound], the “Conc. necessary” value stood at 45 µM.

In the case of `Nc1cc2ccccc2cc1C(=O)N[C@@H](C(=O)N1CCC(C2CCNCC2)CC1)c1ccccc1` [Example 8, 1-(3-Amino-2-naphthoyl-D-phenylglycinyl)-4,4′-bispiperidine], the “Conc. necessary” value came to 26 µM.

Consider `CS(=O)(=O)c1cc(F)ccc1N1CCN(C(=O)[C@H](NC(=O)c2cc(N)ccc2N)c2ccccc2)CC1` [Example 27, 1-(2,5-Diaminobenzoyl-D-phenylglycinyl)-4-(4-fluoro-2-methylsulphonylphenyl)piperazine], for which the “Conc. necessary” value was 6.7 µM.

In the case of `CS(=O)(=O)c1cc(F)ccc1N1CCN(C(=O)[C@H](NC(=O)c2cccc(N)c2)c2ccccc2)CC1` [Example 30, 1-(3-Aminobenzoyl-D-phenylglycinyl)-4-(4-fluoro-2-methylsulphonylphenyl)piperazine], the “Conc. necessary” value was 7.8 µM.

Take `Cc1ccc(C(=O)N[C@@H](C(=O)N2CCN(c3ccc(F)cc3S(C)(=O)=O)CC2)c2ccccc2)cc1N` [Example 38, 1-(3-Amino-4-methylbenzoyl-D-phenylglycinyl)-4-(4-fluoro-2-methylsulphonylphenyl)piperazine]: the “Conc. necessary” value was determined as 9.0 µM.

As for `COc1ccc(C(=O)N[C@@H](C(=O)N2CCN(c3ccc(F)cc3S(C)(=O)=O)CC2)c2ccccc2)cc1` [Example 39, 1-(4-Methoxybenzoyl-D-phenylglycinyl)-4-(4-fluoro-2-methylsulphonylphenyl)piperazine], the “Conc. necessary” value is 12 µM.

Turning to `COc1ccc(C(=O)N[C@@H](C(=O)N2CCN(c3ccc(F)cc3S(C)(=O)=O)CC2)c2ccccc2)cc1N` [Example 40, 1-(3-Amino-4-methoxybenzoyl-D-phenylglycinyl)-4-(4-fluoro-2-methylsulphonylphenyl)piperazine], the “Conc. necessary” value was found to be 12 µM.

Regarding `CN1CCC(C2CCN(C(=O)[C@H](NC(=O)c3cccc(N)c3)c3ccccc3)CC2)CC1` [Example 62, 1-(3-Aminobenzoyl-D-phonylglycinyl)-1′-methyl-4,4′-bispiperidine], the “Conc. necessary” value worked out at 8.6 µM.

`CN1CCC(C2CCN(C(=O)[C@H](NC(=O)c3ccc(Cl)c(N)c3)c3ccccc3)CC2)CC1` [Example 63, 1-(3-Amino-4-chlorobenzoyl-D-phenylglycinyl)-1′-methyl-4,4′-bispiperidine]: the “Conc. necessary” value was determined as 2.1 µM.

Regarding `Cc1ccc(C(=O)N[C@@H](C(=O)N2CCC(C3CCN(C)CC3)CC2)c2ccccc2)cc1N` [Example 64, 1-(3-Amino-4-methylbenzoyl-D-phenylglycinyl)-1′-methyl-4,4′-bispiperidine], the “Conc. necessary” value worked out at 4.4 µM.

As to `CN1CCC(C2CCN(C(=O)[C@H](NC(=O)c3cc4ccccc4cc3N)c3ccccc3)CC2)CC1` [Example 65, 1-(3-Aminonaphth-2-oyl-D-phenylglycinyl)-1′-methyl-4,4′-bispiperidine], the “Conc. necessary” value stood at 6.1 µM.

With `CN1CCC(C2CCN(C(=O)[C@H](NC(=O)c3ccc4cc[nH]c4c3)c3ccccc3)CC2)CC1` [Example 66, 1-(Indol-6-carbonyl-D-phenylglycinyl)-1′-methyl-4,4′-bispiperidine], the “Conc. necessary” value amounted to 2.1 µM.

`CN1CCC(C2CCN(C(=O)[C@H](NC(=O)c3ccc(Br)c(N)c3)c3ccccc3)CC2)CC1` [Example 68, 1-(3-Amino-4-bromobenzoyl-D-phenylglycinyl)-1′-methyl-4,4′-bispiperidine]: the “Conc. necessary” value was 3.6 µM.

As to `COc1ccc(C(=O)N[C@@H](C(=O)N2CCC(C3CCN(C)CC3)CC2)c2ccccc2)cc1N` [Example 69, 1-(3-Amino-4-methoxybenzoyl-D-phenylglycinyl)-1′-methyl-4,4′-bispiperidine], the “Conc. necessary” value stood at 5.8 µM.

Turning to `CNc1ccc(C(=O)N[C@@H](C(=O)N2CCC(C3CCN(C)CC3)CC2)c2ccccc2)cc1` [Example 70, 1-(4-(Methylamino)benzoyl-D-phenylglycinyl)-1′-methyl-4,4′-bispiperidine], the “Conc. necessary” value was determined as 4.0 µM.

System in the next data set: not given
Experiment: not given
Settings: not given
For `COc1ccc(C(=O)N[C@@H](C(=O)N2CCN(CC3CCN(C(C)C)CC3)CC2)c2ccccc2)cc1.Cl`, the melting point (commonly the temperature of the solid-liquid transition) is 172 to 180 °C (dec.).

`COc1ccc(C(=O)N[C@@H](C(=O)N2CCN(CCC3CCCC3)CC2)c2ccccc2)cc1.Cl.O` (hydrate or solvate) showed a melting point of 190 to 192 °C.

On to `COc1ccc(C(=O)N[C@@H](CNC(=O)c2ccc(C)cc2)c2ccccc2)cc1` [Example 254, (R)-N-[2-(4-Methoxybenzoylamino)-2-phenylethyl]-4-methylbenzamide], for which the melting point was 230 to 238 °C.

Molecule `CCc1ccc(C(=O)NC[C@H](NC(=O)c2ccc(OC)cc2)c2ccccc2)cc1` [Example 255, (R)-N-[2-(4-Methoxybenzoylamino)-2-phenylethyl]-4-ethylbenzamide] displayed a melting point of 222 to 229 °C.

Regarding `COc1ccc(C(=O)N[C@@H](CNC(=O)c2ccc(C(C)C)cc2)c2ccccc2)cc1` [Example 256, (R)-N-[2-(4-Methoxybenzoylamino)-2-phenylethyl]-4-isopropylbenzamide], the melting point was in the range of 239 to 244 °C.

`COc1ccc(C(=O)N[C@@H](CNC(=O)c2ccc(C(C)(C)C)cc2)c2ccccc2)cc1` [Example 257, (R)-N-[2-(4-Methoxybenzoylamino)-2-phenylethyl]-4-tert-butylbenzamide]: the melting point lay within 171 to 175 °C.

On to `COc1ccc(C(=O)N[C@@H](CNC(=O)C2CCN(C3CCCC3)CC2)c2ccccc2)cc1` [Example 259, (R)-N-[2-(4-Methoxybenzoylamino)-2-phenylethyl]-1-cyclopentylpiperidine-4-carboxamide], for which the melting point was in the range of 253 to 257 °C.

For the molecule `COc1ccc(C(=O)N[C@@H](CNC(=O)C2CCN(C3CCCCC3)CC2)c2ccccc2)cc1` [Example 260, (R)-N-[2-(4-Methoxybenzoylamino)-2-phenylethyl]-1-cyclohexylpiperidine-4-carboxamide], the melting point fell in the range of 239 to 243 °C.

The molecule `CCN1CCC(C(=O)NC[C@H](NC(=O)c2ccc(OC)cc2)c2ccccc2)CC1` [Example 261, (R)-N-[2-(4-Methoxybenzoylamino)-2-phenylethyl]-1-ethylpiperidine-4-carboxamide] returned a melting point of 245 to 251 °C.

In turn, `COc1ccc(C(=O)N[C@@H](CNC(=O)C2CCN(C3CCN(C)CC3)CC2)c2ccccc2)cc1` [Example 262, (R)-N-[2-(4-Methoxybenzoylamino)-2-phenylethyl]-1-(1-methylpiperidin-4-yl)piperidine-4-carboxamide] registered a melting point of 252 to 259 °C.
